Broadly, the IC50 is the midpoint of a concentration-inhibition curve.

This assay deals with T1, RIPK2 enzyme (Homo sapiens, UniProt O43353).
T1 construct: purchased Carna 09-128
As to the kind of experiment: RIPK2 inhibition (ADP-Glo Kinase Assay). Format: biochemical. The note with it: RIPK2 5 nM, ATP 150 μM, MBP substrate, read-out: RIPK2 IC50. The method, boiled down: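 Human RIPK2 (5 nM) preincubated with compound 30 min at room temperature in 50 mM HEPES pH 7.5, 10 mM MgCl2, 2 mM DTT, 1 mM EGTA, 0.01% Brij-35, 0.05% BSA; native swine MBP as substrate. ADP formed quantified by ADP-Glo luminescence; percent inhibition relative to DMSO and no-enzyme controls.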
On the technique in general: ADP-Glo turns the ADP formed in a reaction into a luminescent signal.

Bounds are passed on as bounds.

T1 sequence (O43353 1-299 limits assumed): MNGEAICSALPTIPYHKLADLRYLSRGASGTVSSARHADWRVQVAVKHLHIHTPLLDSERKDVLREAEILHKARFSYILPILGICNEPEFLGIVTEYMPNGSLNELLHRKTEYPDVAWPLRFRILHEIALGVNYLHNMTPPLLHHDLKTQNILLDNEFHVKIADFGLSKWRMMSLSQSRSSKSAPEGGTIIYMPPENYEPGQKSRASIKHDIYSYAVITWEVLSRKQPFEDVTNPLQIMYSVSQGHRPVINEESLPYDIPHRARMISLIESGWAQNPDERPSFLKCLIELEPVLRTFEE

As for `Cc1c(Oc2ccnc3ccc(S(=O)(=O)N4CCCC4)cc23)ccc(CC(=O)Nc2cnn(C(C)(C)C)c2)c1F` [Compound 270, N-(1-(tert-butyl)-1H-pyrazol-4-yl)-2-(2-fluoro-3-methyl-4-((6-(pyrrolidin-1-ylsulfonyl)quinolin-4-yl)oxy)phenyl)acetamide], the IC50 was less than 2.5 nM.

For the compound `Cc1c(Oc2ccnc3ccc(S(=O)(=O)N4CCC4)cc23)ccc(CC(=O)Nc2cnn(C(C)(C)C)c2)c1F` [Compound 271, 2-(4-((6-(azetidin-1-ylsulfonyl)quinolin-4-yl)oxy)-2-fluoro-3-methylphenyl)-N-(1-(tert-butyl)-1H-pyrazol-4-yl)acetamide], the IC50 was less than 2.5 nM.

With `Cc1c(Oc2ccnc3ccc(S(=O)(=O)N4CC(F)C4)cc23)ccc(CC(=O)Nc2cnn(C(C)(C)C)c2)c1F` [Compound 272, N-(1-(tert-butyl)-1H-pyrazol-4-yl)-2-(2-fluoro-4-((6-((3-fluoroazetidin-1-yl)sulfonyl)quinolin-4-yl)oxy)-3-methylphenyl)acetamide], the IC50 is less than 2.5 nM.

Turning to `Cc1c(Oc2ccnc3ccc(S(=O)(=O)N4CC(C#N)C4)cc23)ccc(CC(=O)Nc2cnn(C(C)(C)C)c2)c1F` [Compound 273, N-(1-(tert-butyl)-1H-pyrazol-4-yl)-2-(4-((6-((3-cyanoazetidin-1-yl)sulfonyl)quinolin-4-yl)oxy)-2-fluoro-3-methylphenyl)acetamide], the IC50 was less than 2.5 nM.

Turning to `Cc1c(Oc2ccnc3ccc(S(=O)(=O)N4CCOCC4)cc23)ccc(CC(=O)Nc2cnn(C(C)(C)C)c2)c1F` [Compound 274, N-(1-(tert-butyl)-1H-pyrazol-4-yl)-2-(2-fluoro-3-methyl-4-((6-(morpholinosulfonyl)quinolin-4-yl)oxy)phenyl)acetamide], the IC50 is less than 2.5 nM.

As for `Cc1c(Oc2ccnc3ccc(S(=O)(=O)N(C)CCO)cc23)ccc(CC(=O)Nc2cnn(C(C)(C)C)c2)c1F` [Compound 275, N-(1-(tert-butyl)-1H-pyrazol-4-yl)-2-(2-fluoro-4-((6-(N-(2-hydroxyethyl)-N-methylsulfamoyl)quinolin-4-yl)oxy)-3-methylphenyl)acetamide], the IC50 is less than 2.5 nM.

In the case of `COCCN(C)S(=O)(=O)c1ccc2nccc(Oc3ccc(CC(=O)Nc4cnn(C(C)(C)C)c4)c(F)c3C)c2c1` [Compound 276, N-(1-(tert-butyl)-1H-pyrazol-4-yl)-2-(2-fluoro-4-((6-(N-(2-methoxyethyl)-N-methylsulfamoyl)quinolin-4-yl)oxy)-3-methylphenyl)acetamide], the IC50 was less than 2.5 nM.

Turning to `Cc1c(Oc2ccnc3ccc(NS(C)(=O)=O)cc23)ccc(CC(=O)Nc2cnn(C(C)(C)C)c2)c1F` [Compound 277, N-(1-(tert-butyl)-1H-pyrazol-4-yl)-2-(2-fluoro-3-methyl-4-((6-(methylsulfonamido)quinolin-4-yl)oxy)phenyl) acetamide], the IC50 was less than 2.5 nM.

With `Cc1c(Oc2ccnc3ccc(N(C)S(C)(=O)=O)cc23)ccc(CC(=O)Nc2cnn(C(C)(C)C)c2)c1F` [Compound 278, N-(1-(tert-butyl)-1H-pyrazol-4-yl)-2-(2-fluoro-3-methyl-4-((6-(N-methylmethyl-sulfonamido)quinolin-4-yl)oxy)phenyl) acetamide], the IC50 was less than 2.5 nM.

`Cc1c(Oc2ccnc3ccc(N4CCCS4(=O)=O)cc23)ccc(CC(=O)Nc2cnn(C(C)(C)C)c2)c1F` [Compound 279, N-(1-(tert-butyl)-1H-pyrazol-4-yl)-2-(4-((6-(1,1-dioxidoisothiazolidin-2-yl)quinolin-4-yl)oxy)-2-fluoro-3-methylphenyl) acetamide]: the IC50 was less than 2.5 nM.

`Cc1cc(CC(=O)Nc2cnn(C(C)(C)C)c2)ccc1Oc1ccnc2ccc(S(=O)(=O)C3CCC3)cc12` [Compound 280, N-(1-(tert-butyl)-1H-pyrazol-4-yl)-2-(4-((6-(cyclobutylsulfonyl)quinolin-4-yl)oxy)-3-methylphenyl)acetamide]: the IC50 is less than 2.5 nM.

Consider `Cc1cc(CC(=O)Nc2cnn(C(C)(C)C)c2)ccc1Oc1ccnc2ccc(S(=O)(=O)C3CC(O)C3)cc12` (stereo not drawn) [Compound 281, N-(1-(tert-butyl)-1H-pyrazol-4-yl)-2-(4-((6-((-3-hydroxycyclobutyl)sulfonyl)quinolin-4-yl)oxy)-3-methylphenyl)acetamide], for which the IC50 is less than 2.5 nM.

With `Cc1c(Oc2ccnc3ccc(S(=O)(=O)C4CCC4)cc23)ccc(CC(=O)Nc2cnn(C(C)(C)C)c2)c1F` [Compound 284, N-(1-(tert-butyl)-1H-pyrazol-4-yl)-2-(4-((6-(cyclobutylsulfonyl)quinolin-4-yl)oxy)-2-fluoro-3-methylphenyl)acetamide], the IC50 is less than 2.5 nM.

On to `CC(C)(C)n1cc(NC(=O)Cc2ncc(Oc3ncnc4ccc(O[C@H]5C[C@H]6CC[C@@H](C5)N6)cc34)cc2F)cn1` [Compound 289, 2-(5-((6-(((1R,3r,5S)-8-azabicyclo[3.2.1]octan-3-yl)oxy)quinazolin-4-yl)oxy)-3-fluoropyridin-2-yl)-N-(1-(tert-butyl)-1H-pyrazol-4-yl)acetamide], for which the IC50 was found to be 4.3 nM.

Take `Cc1cc(CC(=O)Nc2cnn(C(C)(C)C)c2)ccc1Oc1ccnc2ccc(N3CCCC3=O)cc12` [Compound 290, N-(1-(tert-butyl)-1H-pyrazol-4-yl)-2-(3-methyl-4-((6-(2-oxopyrrolidin-1-yl)quinolin-4-yl)oxy)phenyl) acetamide]: the IC50 was less than 2.5 nM.

For `Cc1cc(CC(=O)Nc2cnn(C(C)(C)C)c2)ccc1Oc1ccnc2ccc(N3CCOC3=O)cc12` [Compound 293, N-(1-(tert-butyl)-1H-pyrazol-4-yl)-2-(3-methyl-4-((6-(2-oxooxazolidin-3-yl)quinolin-4-yl)oxy)phenyl) acetamide], the IC50 was less than 2.5 nM.

Turning to `Cc1cc(CC(=O)Nc2cnn(C(C)(C)C)c2)ccc1Oc1ccnc2ccc(N3CCOCC3=O)cc12` [Compound 294, N-(1-(tert-butyl)-1H-pyrazol-4-yl)-2-(3-methyl-4-((6-(3-oxomorpholino)quinolin-4-yl)oxy)phenyl) acetamide], the IC50 was less than 2.5 nM.

For `Cc1c(Oc2ccnc3ccc(N4CCCC4=O)cc23)ccc(CC(=O)Nc2cnn(C(C)(C)C)c2)c1F` [Compound 295, N-(1-(tert-butyl)-1H-pyrazol-4-yl)-2-(2-fluoro-3-methyl-4-((6-(2-oxopyrrolidin-1-yl)quinolin-4-yl)oxy)phenyl) acetamide], the IC50 was less than 2.5 nM.

With `Cc1c(Oc2ccnc3ccc(N4CCOC4=O)cc23)ccc(CC(=O)Nc2cnn(C(C)(C)C)c2)c1F` [Compound 298, N-(1-(tert-butyl)-1H-pyrazol-4-yl)-2-(2-fluoro-3-methyl-4-((6-(2-oxooxazolidin-3-yl)quinolin-4-yl)oxy)phenyl) acetamide], the IC50 is less than 2.5 nM.

Regarding `Cc1c(Oc2ccnc3ccc(P(C)(C)=O)cc23)ccc(CC(=O)Nc2cnn(C(C)(C)C)c2)c1F` [Compound 300, N-(1-(tert-butyl)-1H-pyrazol-4-yl)-2-(4-((6-(dimethylphosphoryl)quinolin-4-yl)oxy)-2-fluoro-3-methylphenyl) acetamide], the IC50 is less than 2.5 nM.

`CCP(=O)(CC)c1ccc2nccc(Oc3ccc(CC(=O)Nc4cnn(C(C)(C)C)c4)c(F)c3C)c2c1` [Compound 301, N-(1-(tert-butyl)-1H-pyrazol-4-yl)-2-(4-((6-(diethylphosphoryl)quinolin-4-yl)oxy)-2-fluoro-3-methylphenyl) acetamide]: the IC50 was less than 2.5 nM.
